Reference: patent publication US7998965B2, “Glutamate aggrecanase inhibitors” (Wyeth LLC, priority 2005, dated 2011)
Read-outs that look alike come from different tables or passages of the source.

Experiments:
MMP-12 = MMP-12 (Homo sapiens, UniProt P39900); test: MMP-12 of Table 3; assay type: biochemical; conditions: unit inferred
[1] = target: T1, purified recombinant human Aggrecanase-1 (rAgg1) (Homo sapiens, UniProt O75173); test: In vitro fluorescence screen for Aggrecanase-1 inhibitors; assay type: biochemical; conditions: for IC50: read-out: Agg1 IC50
T1 sequence (O75173 213-837): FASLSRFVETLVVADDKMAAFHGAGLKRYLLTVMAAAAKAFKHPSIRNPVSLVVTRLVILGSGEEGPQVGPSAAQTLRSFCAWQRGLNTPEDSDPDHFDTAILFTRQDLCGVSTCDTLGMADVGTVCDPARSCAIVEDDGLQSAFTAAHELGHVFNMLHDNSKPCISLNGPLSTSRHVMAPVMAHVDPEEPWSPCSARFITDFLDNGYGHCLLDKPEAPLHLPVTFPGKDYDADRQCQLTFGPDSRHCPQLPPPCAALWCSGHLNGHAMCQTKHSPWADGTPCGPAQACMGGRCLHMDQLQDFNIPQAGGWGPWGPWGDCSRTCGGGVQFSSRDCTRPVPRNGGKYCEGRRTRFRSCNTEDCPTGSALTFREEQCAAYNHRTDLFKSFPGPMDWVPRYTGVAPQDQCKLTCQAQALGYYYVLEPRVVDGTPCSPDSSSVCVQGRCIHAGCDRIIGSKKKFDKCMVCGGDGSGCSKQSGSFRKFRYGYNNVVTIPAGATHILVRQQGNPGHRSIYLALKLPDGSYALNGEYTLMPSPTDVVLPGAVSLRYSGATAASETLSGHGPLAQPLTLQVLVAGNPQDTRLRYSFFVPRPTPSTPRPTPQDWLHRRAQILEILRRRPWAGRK

recombinant human MMP-2 = target: T2, recombinant human MMP-2 (Homo sapiens, UniProt P08253); test: In vitro fluorescence assay of MMP-2 activity
T2 sequence (P08253 110-660): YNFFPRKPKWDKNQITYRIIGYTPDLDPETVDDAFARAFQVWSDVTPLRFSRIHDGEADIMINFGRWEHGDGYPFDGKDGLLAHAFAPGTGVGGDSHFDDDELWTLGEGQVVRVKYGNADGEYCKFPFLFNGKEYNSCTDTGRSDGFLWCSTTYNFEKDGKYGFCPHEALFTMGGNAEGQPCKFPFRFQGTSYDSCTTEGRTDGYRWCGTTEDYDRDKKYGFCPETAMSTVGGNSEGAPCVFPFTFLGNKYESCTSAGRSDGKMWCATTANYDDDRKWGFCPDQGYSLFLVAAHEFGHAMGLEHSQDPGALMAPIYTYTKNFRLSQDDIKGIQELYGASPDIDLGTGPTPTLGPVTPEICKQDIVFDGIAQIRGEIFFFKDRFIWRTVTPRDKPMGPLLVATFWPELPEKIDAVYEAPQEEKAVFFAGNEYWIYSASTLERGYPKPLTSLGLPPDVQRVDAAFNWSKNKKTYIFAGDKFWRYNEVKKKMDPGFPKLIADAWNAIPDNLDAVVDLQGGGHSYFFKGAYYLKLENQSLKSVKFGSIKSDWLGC
Protocol: A continuous assay was used in which the substrate is a synthetic peptide containing a fluorescent group (7-methoxycoumarin; Mca), which is quenched by energy transfer to a 2,4-dinitrophenyl group. […] The source of enzyme in the assay was the recombinant human MMP-2 (66 kDa; Oncogene Research Products (catalog number PF023 from Calbiochem)). The substrate used was the peptide Mca-PQGL-(3-[2,4-dinitrophenyl]-L-2,3-diaminopropionyl)-AR-OH. The assay buffer consisted of 50 mM Hepes (pH 7.4), 100 mM NaCl, 5 mM CaCl2, and 0.005% Brij-35. […] The plates were then incubated at 30° C. for 15 minutes. The enzymatic reactions were initiated by adding the substrate to a final concentration of 20 μM, and mixing 10 times with a pipette. The final DMSO concentration in the assay was 6.0%.
Plots of the inhibitor concentration vs. the percent inhibition were fit to the following equation: y=(a−d)/[^1+(x/c)^b]+d, a general sigmoidal curve with Hill slope, a to d. x is the inhibitor concentration under test. y is the percent inhibition. a is the limiting response as x approaches zero. As x increases without bound, y tends toward its limit d. c is the inflection point (IC50) for the curve. That is, y is halfway between the lower and upper asymptotes when x=c. b is the slope factor or Hill coefficient.

MMP-8 = MMP-8 (Homo sapiens, UniProt P22894); test: MMP-8 of Table 3; assay type: biochemical; conditions: unit inferred
[2] = target: T3, purified recombinant human Aggrecanase-2 (Ag2t-Phe628-Strep) (Homo sapiens, UniProt Q9UNA0); test: In vitro fluorescence screen for Aggrecanase-2 inhibitors; assay type: biochemical; conditions: for IC50: read-out: Agg 2 IC50
T3 construct: the form used is denoted as Ag2t-Phe628-Strep (MW=41,737)
T3 sequence (Q9UNA0 262-628): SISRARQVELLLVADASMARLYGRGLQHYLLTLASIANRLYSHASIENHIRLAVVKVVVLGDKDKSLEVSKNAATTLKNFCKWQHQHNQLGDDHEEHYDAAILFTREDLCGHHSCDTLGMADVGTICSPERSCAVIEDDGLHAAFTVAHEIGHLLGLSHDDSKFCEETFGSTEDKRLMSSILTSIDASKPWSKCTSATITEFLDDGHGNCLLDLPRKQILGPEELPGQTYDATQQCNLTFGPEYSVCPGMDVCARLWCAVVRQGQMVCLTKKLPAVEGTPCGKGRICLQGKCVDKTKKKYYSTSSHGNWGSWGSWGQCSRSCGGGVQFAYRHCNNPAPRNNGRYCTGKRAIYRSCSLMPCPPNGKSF

MMP-1 = target: T4, MMP-1 (Homo sapiens, UniProt P03956); test: MMP-1 of Table 1; assay type: biochemical; conditions: for MMP-1: unit not given; for IC50: unit inferred
T4 sequence (P03956 100-469): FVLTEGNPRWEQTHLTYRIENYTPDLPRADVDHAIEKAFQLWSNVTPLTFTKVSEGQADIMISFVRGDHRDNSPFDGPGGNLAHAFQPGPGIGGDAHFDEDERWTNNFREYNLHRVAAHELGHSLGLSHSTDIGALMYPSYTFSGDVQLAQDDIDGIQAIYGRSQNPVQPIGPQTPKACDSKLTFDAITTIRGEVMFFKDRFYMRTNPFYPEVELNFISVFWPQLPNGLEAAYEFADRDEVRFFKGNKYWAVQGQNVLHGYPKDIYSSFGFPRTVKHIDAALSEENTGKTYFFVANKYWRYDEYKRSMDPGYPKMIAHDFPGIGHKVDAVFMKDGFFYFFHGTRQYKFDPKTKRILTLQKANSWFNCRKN

[3] = system: bovine articular cartilage treated with Interleukin 1 alpha (IL-1α); test: Bovine articular cartilage explant cultures: inhibition of degradation of proteoglycan; assay type: cell-based; conditions: inhibitory effect expressed as percentage, concentration not printed
How it was run: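 Bovine metacarpal cartilage discs (6 mm), equilibrated in serum-free DMEM-based medium, were treated with 5 ng/ml IL-1 plus compound (working solutions 0.1-10 μg/ml), with medium collected and replaced on days 1, 2 and 3. Released proteoglycan was measured by DMMB absorbance at 520 nm against chondroitin sulphate standards, expressed as μg per mg cartilage, and inhibition given as percentage.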

[4] = target: T5, recombinant human catalytic domain of MMP-14 (Homo sapiens, UniProt P50281); test: In vitro fluorescence assay of MMP-14 activity; assay type: biochemical; conditions: Table 1; unit inferred
T5 construct: 177 amino acids corresponding to Tyr89-Gly265 of mature human enzyme; purchased Chemicon International, Inc. CC1041

[5] = target: T6, recombinant human catalytic domain of MMP-13 (Homo sapiens, UniProt P45452); test: In vitro fluorescence assay of MMP-13 activity; assay type: biochemical; conditions: Table 1; for IC50: unit inferred
T6 construct: catalytic domain of MMP-13 (165 amino acids, residues 104-268, 19 kDa)

[6] = Table 1, first of two columns headed bovine
[7] = Table 1, second of two columns headed bovine
[8] = Table 1, enzyme not given, column follows Agg1 IC50, read-out: Ki

Chain of MMP-12 (P39900 106-470): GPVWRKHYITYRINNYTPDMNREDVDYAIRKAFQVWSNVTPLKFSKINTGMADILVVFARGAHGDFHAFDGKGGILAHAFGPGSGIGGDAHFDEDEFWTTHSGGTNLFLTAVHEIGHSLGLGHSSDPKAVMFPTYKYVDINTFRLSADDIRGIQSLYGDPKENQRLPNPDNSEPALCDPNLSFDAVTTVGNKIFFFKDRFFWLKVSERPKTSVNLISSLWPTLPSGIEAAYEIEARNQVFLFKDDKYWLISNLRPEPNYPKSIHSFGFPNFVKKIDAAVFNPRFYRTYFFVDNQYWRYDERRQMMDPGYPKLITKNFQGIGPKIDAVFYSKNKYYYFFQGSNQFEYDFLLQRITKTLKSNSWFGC
Chain of MMP-8 (P22894 101-467, species assumed): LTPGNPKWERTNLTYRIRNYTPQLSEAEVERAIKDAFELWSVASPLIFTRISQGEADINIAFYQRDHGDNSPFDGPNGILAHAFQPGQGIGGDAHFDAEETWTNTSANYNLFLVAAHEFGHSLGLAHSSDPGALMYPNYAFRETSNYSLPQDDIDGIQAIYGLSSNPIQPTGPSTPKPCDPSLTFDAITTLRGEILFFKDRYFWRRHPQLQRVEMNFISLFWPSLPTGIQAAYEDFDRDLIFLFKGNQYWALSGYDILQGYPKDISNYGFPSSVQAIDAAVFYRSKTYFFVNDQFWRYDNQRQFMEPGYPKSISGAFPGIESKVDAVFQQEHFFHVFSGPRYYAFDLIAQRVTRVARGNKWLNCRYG

Row | IC50 (MMP-12) [nM] | IC50 ([1]; Table 3) [nM] | Ki ([1]; Table 3, read-out: Ki Agg1) [nM] | IC50 (recombinant human MMP-2) [nM] | IC50 (MMP-8) [nM] | IC50 ([2]; Table 3) [nM] | Ki ([2]; Table 3, read-out: Ki Agg2) [nM] | MMP-1 (MMP-1) | IC50 [4] [nM] | Ki [1, 8] [nM] | IC50 ([1]; Table 1) [nM] | IC50 [5] [nM] | IC50 ([2]; Table 1) [nM] | IC50 (MMP-1) [nM] | MMP-13 ([5]; unit not given) | Compound | bovine [3, 6] [%] | bovine [3, 7] [%]
1 | 372 | < 30 | 2.7 | 718 | 349 | ~30 | 66 |  |  |  |  |  |  |  |  | CC(C)(Cc1ccccc1)NC(=O)[C@H](CCC(=O)O)NC(=O)c1ccc(-c2ccc(Br)s2)cc1 [Example 8OOOOOOOOO, N^2-[4-(5-bromo-2-thienyl)benzoyl]-N-(1,1-dimethyl-2-phenylethyl)-L-α-glutamine] |  | 
2 |  |  |  | 6100 |  |  |  | no inh | ~22000 | 31 | 11 | 37300 | 400 |  |  | COc1cccc(CNC(=O)[C@H](CCC(=O)O)NC(=O)c2ccc(-c3ccccc3)cc2)c1 [Example 8Q, N^2-(1,1′-biphenyl-4-ylcarbonyl)-N^1-(3-methoxybenzyl)-L-α-glutamine] | 66 | 24
3 |  |  |  | 10400 |  |  |  | no inh | ~22000 | 5 | 16 | 42400 | 50 |  |  | COc1cc(CNC(=O)[C@H](CCC(=O)O)NC(=O)c2ccc(-c3ccccc3)cc2)cc(OC)c1OC [Example 8R, N^2-(1,1′-biphenyl-4-ylcarbonyl)-N^1-(3,4,5-trimethoxybenzyl)-L-α-glutamine] | 86 | 78
4 |  |  |  | 3130 |  |  |  | no inh | ~25000 | 245 | 150 | > 200000 | 1300 |  |  | O=C(O)CC[C@H](NC(=O)c1ccc(-c2ccccc2)cc1)C(=O)NCc1ccc(Cl)cc1Cl [Example 8S, N^2-(1,1′-biphenyl-4-ylcarbonyl)-N^1-(2,4-dichlorobenzyl)-L-α-glutamine] | 51 | 40
5 |  |  |  | 3430 |  |  |  |  | ~30000 |  | 160 | ~67000 | 1100 | > 100000 |  | CSc1ccc(CNC(=O)[C@H](CCC(=O)O)NC(=O)c2ccc(-c3ccccc3)cc2)cc1 [Example 8V, N^2-(1,1′-biphenyl-4-ylcarbonyl)-N^1-[4-(methylthio)benzyl]-L-α-glutamine] | 73 | 45
6 |  |  |  | 13000 |  |  |  |  | > 200000 |  | 100 |  | 1600 | > 50000 | no inh | CN(C)c1ccc(CNC(=O)[C@H](CCC(=O)O)NC(=O)c2ccc(-c3ccccc3)cc2)cc1 [Example 8ZZZ, N^2-(biphenyl-4-ylcarbonyl)-N^1-[4-(dimethylamino)benzyl]-L-α-glutamine] | 72 | 34
7 |  |  |  | > 20000 |  |  |  |  | > 200000 | 54 | 43 | ~20000 | 1100 | > 50000 |  | C=Cc1cccc(CNC(=O)[C@H](CCC(=O)O)NC(=O)c2ccc(-c3ccccc3)cc2)c1 [Example 10M, N^2-(1,1′-biphenyl-4-ylcarbonyl)-N^1-(3-vinylbenzyl)-L-α-glutamine] | 67 | 35
8 |  |  |  | 7600 |  |  |  |  | > 200000 | 28 | 19 | > 50000 | 970 | > 200000 |  | O=C(O)CC[C@H](NC(=O)c1ccc(-c2ccccc2)cc1)C(=O)NCc1cccc(-c2cccs2)c1 [Example 10N, N^2-(1,1′-biphenyl-4-ylcarbonyl)-N^1-(3-thien-2-ylbenzyl)-L-α-glutamine] | 65 | 24
9 |  |  |  | > 20000 |  |  |  |  | > 200000 | 187 | 77 | > 20000 | 1900 | > 50000 |  | C=Cc1ccc(CNC(=O)[C@H](CCC(=O)O)NC(=O)c2ccc(-c3ccccc3)cc2)cc1 [Example 10R, N^2-(1,1′-biphenyl-4-ylcarbonyl)-N^1-(4-vinylbenzyl)-L-α-glutamine] | 41 | 0
10 |  |  |  | ~1000 |  |  |  |  | ~2000 |  | 110 | ~5000 | ~800 | ~2000 |  | O=C(O)CC[C@H](NC(=O)c1ccc(-c2cccs2)cc1)C(=O)NCc1ccccc1 [Example 11, N^1-benzyl-N^2-(4-thien-2-ylbenzoyl)-L-α-glutamine] | 78 | 52
11 |  |  |  | ~2000 |  |  |  |  | ~2000 |  | 700 | ~6000 | ~5000 | ~2000 |  | O=C(O)CC[C@H](NC(=O)c1ccc(-c2ccco2)cc1)C(=O)NCc1ccccc1 [Example 12A, N^1-benzyl-N^2-[4-(2-furyl)benzoyl]-L-α-glutamine] | 41 | 18
12 |  |  |  | ~67000 |  |  |  |  | > 100000 |  | 1500 | > 100000 | ~67000 | > 100000 |  | Cc1cc(C)cc(-c2ccc(C(=O)N[C@@H](CCC(=O)O)C(=O)NCc3ccccc3)cc2)c1 [Example 13A, N^1-benzyl-N^2-[(3′,5′-dimethyl-1,1′-biphenyl-4-yl)carbonyl]-L-α-glutamine] | 37 | 18
13 |  |  |  | > 200000 |  |  |  |  | > 100000 |  | 750 | > 200000 | ~26000 | > 100000 |  | CCOc1cccc(-c2ccc(C(=O)N[C@@H](CCC(=O)O)C(=O)NCc3ccccc3)cc2)c1 [Example 13D, N^1-benzyl-N^2-[(3′-ethoxy-1,1′-biphenyl-4-yl)carbonyl]-L-α-glutamine] | 51 | 25
